Measurements published in patent publication US6818622B2 (Darwin Discovery Ltd., priority 1997, dated 2004).

Experiments:
[1] = test system: marmoset joints and tendons; assay: Marmoset tendonitis study; assay type: in vivo; details: oral dosing at 30 and 100 mg/kg for 3 months; for Plasma levels on repeated plasma sampling: up to 9 h post-dose
Protocol: Specific examples of compounds showing the desired profile are those of Examples 1 and 2 and cpd. 3 (see below). These three compounds have been tested in the marmoset tendonitis study. This procedure for this study has been defined by Wojtowicz-Praga et al, supra. The study was performed with oral dosing at 30 and 100 mg/kg for 3 months. […] See Hooper et al, supra.

gelatinase-A (MMP-2) = molecular target: T1, gelatinase-A (MMP-2) (Homo sapiens, UniProt P08253); assay: MMP inhibition activity fluorimetric assay (Example A), MMP-2; assay type: biochemical; details: fluorimetric substrate 10 μM, 37° C.
T1 sequence (P08253 110-660): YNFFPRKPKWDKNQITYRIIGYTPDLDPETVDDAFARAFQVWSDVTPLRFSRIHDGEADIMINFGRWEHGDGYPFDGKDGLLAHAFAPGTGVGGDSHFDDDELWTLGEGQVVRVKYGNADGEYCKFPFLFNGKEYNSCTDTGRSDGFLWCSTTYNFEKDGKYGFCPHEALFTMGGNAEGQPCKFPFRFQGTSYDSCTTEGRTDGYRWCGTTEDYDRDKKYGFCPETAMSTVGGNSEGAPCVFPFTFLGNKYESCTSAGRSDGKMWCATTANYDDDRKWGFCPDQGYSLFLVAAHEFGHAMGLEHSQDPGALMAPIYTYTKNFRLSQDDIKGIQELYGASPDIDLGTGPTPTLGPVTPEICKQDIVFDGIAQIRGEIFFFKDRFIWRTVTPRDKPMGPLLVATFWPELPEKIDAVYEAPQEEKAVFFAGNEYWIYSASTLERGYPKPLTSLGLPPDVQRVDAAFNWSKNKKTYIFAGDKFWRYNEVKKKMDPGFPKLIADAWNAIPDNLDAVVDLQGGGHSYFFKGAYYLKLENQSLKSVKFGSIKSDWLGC
Protocol: (§1) The potency of inhibitors of collagenase-1 (MMP-1), collagenase-2 (MMP-8), collagenase-3 (MMP-13), gelatinase-A (MMP-2), gelatinase-B (MMP-9) and stromelysin-1 (MMP-3) is determined using the following procedure:
(§2) Inhibitors are dissolved in dimethyl sulphoxide containing 0.02% β-mercaptoethanol, and serial dilutions are prepared. Activated enzyme is incubated in assay buffer containing 50 mM Tris, pH 7.4, 5 mM CaCl2, 0.002% NaN3 and Brij 35 in the presence and absence of inhibitor. Samples are preincubated at 37° C. for 15 minutes before the addition of the fluorimetric substrate (Mca-Pro-Leu-Gly-Leu-Dpa-Ala-Arg-NH2) to a final concentration of 10 μM.
(§3) The enzyme activity is compared to activity in a control devoid of inhibitor.

stromelysin-1 (MMP-3) = stromelysin-1 (MMP-3) (Homo sapiens, UniProt P08254); assay: MMP inhibition activity fluorimetric assay (Example A), MMP-3; assay type: biochemical; details: fluorimetric substrate 10 μM, 37° C.
Protocol: as §1, §2, §3

collagenase-2 (MMP-8) = collagenase-2 (MMP-8) (Homo sapiens, UniProt P22894); assay: MMP inhibition activity fluorimetric assay (Example A), MMP-8; assay type: biochemical; details: fluorimetric substrate 10 μM, 37° C.
Protocol: as §1, §2, §3

collagenase-3 (MMP-13) = collagenase-3 (MMP-13) (Homo sapiens, UniProt P45452); assay: MMP inhibition activity fluorimetric assay (Example A), MMP-13; assay type: biochemical; details: fluorimetric substrate 10 μM, 37° C.
Protocol: as §1, §2, §3

[2] = test system: sIL-1RII shedding by PBMC; assay: Inhibition of sIL-1RII shedding (Example D); assay type: cell-based; details: read-out: Example D: inhibitor concentration effecting 50% inhibition of the shedding of sIL-1RII; PBMC stimulated with IL-13, 18 h, ELISA
Protocol: An assay of sIL-1RII shedding by PBMC is conducted as follows: PBMC are isolated from buffy coats by standard procedures using Ficoll. A 100 μM solution of the inhibitor being tested or dilutions thereof are incubated for 18 h at 37° C. in an atmosphere of 5% CO2 with 2×10^6/ml PBMC stimulated with IL-13. The cells are centrifuged down and the supernatants tested for sIL-1RII using a commercially available ELISA kit. The activity in the presence of 100 μM inhibitor or dilutions thereof is compared to activity in a control devoid of inhibitor.

[3] = test system: L-selectin shedding by peripheral blood mononuclear cells (PBMC); assay: Inhibition of L-selectin shedding (Example C); assay type: cell-based; details: 20 min, read-out: Example C: inhibitor concentration effecting 50% inhibition of the shedding of L-selectin, PBMC stimulated with PMA, ELISA
Protocol: An assay of L-selectin shedding by peripheral blood mononuclear cells (PBMC) is conducted as follows: PBMC are isolated from buffy coats by standard procedures using Ficoll. A 100 μM solution of the inhibitor being tested or dilutions thereof is incubated for 20 min at 37° C. in an atmosphere of 5% CO2 with 4×10^6/ml PBMC stimulated with PMA. The cells are centrifuged down and the supernatants tested for sL-selectin using a commercially available ELISA kit. The activity in the presence of 100 μM inhibitor or dilutions thereof is compared to activity in a control devoid of inhibitor.

[4] = test system: production of TNFα by peripheral blood mononuclear cells (PBMC); assay: Inhibition of TNFα production (Example B); assay type: cell-based; details: read-out: Example B: inhibitor concentration effecting 50% inhibition of the production of TNFα; PBMC stimulated with LPS, 18 hours, ELISA
Protocol: PBMC are isolated from buffy coats by standard procedures using Ficoll. […] After 18 hours the supernatant is assayed for the levels of TNFα using a commercially available ELISA kit. The activity in the presence of 100 μM inhibitor or dilutions thereof is compared to activity in a control devoid of inhibitor.

[5] = test system: shedding of TNF RII by THP-1 cells (human monocytes); assay: Inhibition of TNF RII shedding (Example F); assay type: cell-based; details: read-out: Example F: inhibitor concentration effecting 50% inhibition of the shedding of TNF RII, THP-1 cells stimulated with LPS, 18 hours, ELISA
Protocol: After 18 hours the supernatant is assayed for the levels of sTNF RII using a commercially available ELISA kit. The activity in the presence of 0.1 mM inhibitor or dilutions thereof is compared to activity in a control devoid of inhibitor.

collagenase-1 (MMP-1) = molecular target: T2, collagenase-1 (MMP-1) (Homo sapiens, UniProt P03956); assay: MMP inhibition activity fluorimetric assay (Example A), MMP-1; assay type: biochemical; details: fluorimetric substrate 10 μM, 37° C.
T2 sequence (P03956 100-469): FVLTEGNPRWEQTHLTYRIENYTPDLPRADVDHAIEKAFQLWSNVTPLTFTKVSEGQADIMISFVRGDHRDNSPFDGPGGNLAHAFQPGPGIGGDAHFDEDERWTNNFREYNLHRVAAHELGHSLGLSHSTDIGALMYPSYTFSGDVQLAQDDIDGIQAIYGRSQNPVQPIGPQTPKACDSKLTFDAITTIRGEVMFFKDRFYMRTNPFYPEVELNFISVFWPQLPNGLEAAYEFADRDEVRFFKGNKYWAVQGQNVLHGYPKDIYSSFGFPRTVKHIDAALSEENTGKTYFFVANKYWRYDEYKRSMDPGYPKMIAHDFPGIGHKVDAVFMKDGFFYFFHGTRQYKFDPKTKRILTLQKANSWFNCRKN
Protocol: as §1, §2, §3

gelatinase-B (MMP-9) = gelatinase-B (MMP-9) (Homo sapiens, UniProt P14780); assay: MMP inhibition activity fluorimetric assay (Example A), MMP-9; assay type: biochemical; details: fluorimetric substrate 10 μM, 37° C.
Protocol: as §1, §2, §3

[6] = test system: sIL-6R shedding by HL-60 cells; assay: Inhibition of IL-6R shedding (Example E); assay type: cell-based; details: Homo sapiens, read-out: Example E: inhibitor concentration effecting 50% inhibition of the shedding of IL-6R; HL-60 cells stimulated with PMA, 24 h, ELISA
Protocol: An assay of sIL-6R shedding by HL-60 cells is conducted as follows: PBMC are isolated from buffy coats by standard procedures using Ficoll. A 100 μM solution of the inhibitor being tested or dilutions thereof is incubated for 24 h at 37° C. in an atmosphere of 5% CO2 with 2×10^6/ml HL-60 cells stimulated with PMA. The cells are centrifuged down and the supernatants tested for sIl-6R using a commercially available ELISA kit. The activity in the presence of 100 μM inhibitor or dilutions thereof is compared to activity in a control devoid of inhibitor.

Chain of gelatinase-B (MMP-9) (P14780 107-707 limits assumed, species assumed): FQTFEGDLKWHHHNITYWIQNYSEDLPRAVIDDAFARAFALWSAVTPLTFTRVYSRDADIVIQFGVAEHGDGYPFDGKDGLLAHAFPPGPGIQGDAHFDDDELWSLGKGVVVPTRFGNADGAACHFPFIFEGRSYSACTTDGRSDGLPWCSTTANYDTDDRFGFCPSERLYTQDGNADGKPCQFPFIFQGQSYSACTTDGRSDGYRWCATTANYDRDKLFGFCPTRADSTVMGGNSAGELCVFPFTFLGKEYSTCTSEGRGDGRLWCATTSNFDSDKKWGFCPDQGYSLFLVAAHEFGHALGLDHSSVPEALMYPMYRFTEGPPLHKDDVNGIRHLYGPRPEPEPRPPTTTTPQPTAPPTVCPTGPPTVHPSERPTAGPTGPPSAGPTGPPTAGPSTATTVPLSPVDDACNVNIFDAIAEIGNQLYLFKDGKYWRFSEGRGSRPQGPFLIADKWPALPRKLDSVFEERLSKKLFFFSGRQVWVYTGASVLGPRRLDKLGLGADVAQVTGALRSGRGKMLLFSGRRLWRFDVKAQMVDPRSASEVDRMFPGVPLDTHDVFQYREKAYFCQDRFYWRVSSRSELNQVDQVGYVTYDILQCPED
Chain of collagenase-2 (MMP-8) (P22894 101-467, species assumed): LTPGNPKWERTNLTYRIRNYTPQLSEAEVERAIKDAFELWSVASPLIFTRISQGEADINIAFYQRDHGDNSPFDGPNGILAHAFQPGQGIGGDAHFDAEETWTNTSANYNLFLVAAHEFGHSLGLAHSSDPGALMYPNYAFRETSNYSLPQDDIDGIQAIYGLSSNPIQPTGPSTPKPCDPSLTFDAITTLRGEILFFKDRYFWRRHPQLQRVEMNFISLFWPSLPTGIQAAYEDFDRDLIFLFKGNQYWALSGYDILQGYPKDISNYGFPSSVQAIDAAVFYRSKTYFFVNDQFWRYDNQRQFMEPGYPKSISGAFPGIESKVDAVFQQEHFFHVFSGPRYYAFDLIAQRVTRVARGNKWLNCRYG
Chain of stromelysin-1 (MMP-3) (P08254 100-477, species assumed): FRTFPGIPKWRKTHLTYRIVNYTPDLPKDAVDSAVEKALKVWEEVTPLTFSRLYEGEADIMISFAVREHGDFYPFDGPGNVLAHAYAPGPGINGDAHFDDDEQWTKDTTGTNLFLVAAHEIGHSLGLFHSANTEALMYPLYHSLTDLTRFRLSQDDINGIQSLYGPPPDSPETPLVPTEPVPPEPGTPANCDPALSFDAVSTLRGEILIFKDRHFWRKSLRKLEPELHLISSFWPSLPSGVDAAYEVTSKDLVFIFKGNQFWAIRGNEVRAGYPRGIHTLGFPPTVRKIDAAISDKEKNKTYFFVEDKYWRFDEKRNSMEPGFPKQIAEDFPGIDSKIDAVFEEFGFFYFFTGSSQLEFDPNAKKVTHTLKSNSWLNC

| Compound | Continuous clinical observation [1] | Histological observation of joints and tendons [1] | Plasma levels on repeated plasma sampling [1] | IC50 (gelatinase-A (MMP-2)) [nM] | IC50 (stromelysin-1 (MMP-3)) [nM] | IC50 (collagenase-2 (MMP-8)) [nM] | IC50 (collagenase-3 (MMP-13)) [nM] | IC50 [2] [nM] | IC50 [3] [nM] | IC50 [4] [nM] | IC50 [5] [nM] | IC50 (collagenase-1 (MMP-1)) [nM] | IC50 (gelatinase-B (MMP-9)) [nM] | IC50 [6] [nM] |
| --- | --- | --- | --- | --- | --- | --- | --- | --- | --- | --- | --- | --- | --- | --- |
| CNC(=O)[C@@H](NC(=O)[C@H](CC(C)C)NC(=O)[C@@H](S)CCN1C(=O)CCC1=O)C(C)(C)C [Ex. 1, 2S-[4-(2,5-Dioxopyrrolidin-1-yl)-2S-mercaptobutyrylamino]-4-methylpentanoic Acid (2,2-Dimethyl-1S-methylcarbamoylpropyl)-amide] | no adverse effects | no adverse effects on joints and tendons | sustained levels in excess of the enzymes' IC50 | 130 | 381 | 10 | 4 | 38000 | > 50000 | > 50000 | > 50000 | 12 | 53 | > 50000 |
| CNC(=O)[C@@H](NC(=O)[C@H](CC(C)C)NC(=O)[C@@H](S)CCN1C(=O)N(C)C(C)(C)C1=O)C(C)(C)C [Ex. 2, 2S-[2S-Mercapto-4-(3,4,4-trimethyl-2,5-dioxoimidazolidin-1-yl)butyrylamino]-4-methylpentanoic Acid (2,2-Dimethyl-1S-methylcarbamoylpropyl)amide] | no adverse effects | no adverse effects on joints and tendons | sustained levels in excess of the enzymes' IC50 | 41 | 157 | 10 | 4 | > 50000 | > 50000 | > 50000 | > 50000 | 25 | 25 | > 50000 |
| CNC(=O)[C@@H](NC(=O)[C@H](CC(C)C)NC(=O)[C@@H](S)CCCN1C(=O)c2ccccc2C1=O)C(C)(C)C [Cpd. 3, (S)-N-[2-mercapto-5-phthalimido]pentanoyl-L-leucyl-(S)-tert-leucine N-methylamide] | no adverse effects | no adverse effects on joints and tendons | sustained levels in excess of the enzymes' IC50 | 15 | 179 | 9 | 2 | > 50000 | > 50000 | 10000 | > 50000 | 28 | 5 | > 50000 |
